Data: US20020026053A1, “Novel 3-(substituted) -2- indolinones compounds and use thereof as inhibitors of protein kinase activity” (priority 1997, published 2002)

Experiments:
[1] = test system: FLK-1 receptor; experiment: FLK-1 Assay (cellular/catalytic ELISA, VEGF-stimulated phosphotyrosine); format: cell-based; design: concentration or dose not given beside the values
Procedure, shortened: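 NIH3T3 C7#3 cells engineered to express Flk-1 were serum-starved overnight (0.1% FBS), then exposed to compound for 2 h at 37 °C (final dilution 1:200, 0.5% DMSO) before VEGF stimulation. Lysates captured on anti-FLK-1 antiserum plates; phosphotyrosine detected by UB40 antibody/POD-ABTS ELISA versus untreated controls.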

[2] = test system: PDGF-R; experiment: PDGF-R Assay (cellular ELISA, U1242 cells); format: cell-based; design: concentration or dose not given beside the values
Procedure, shortened: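 U1242 cells seeded in 0.5% serum, serum-starved, then exposed to compound for 2 hr at 37°C before 5–10 min ligand stimulation and lysis in HNTG. Lysate captured on receptor-antibody-coated plates; phosphotyrosine detected with polyclonal anti-pTyr, goat anti-rabbit IgG and ABTS/H2O2, A410 (ref 630 nm), versus untreated cells.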

Row | Structure (SMILES) | Flk Kinase % Inhibition (P.110) [1] [%] | PDGF Kinase % Inhibition (P.119) [2] [%]
1 | O=C1Nc2ccc(S(=O)(=O)N3CCOCC3)cc2C1=Cc1cc(Cl)ccc1O [10734/F04] | −2.6 | 25.0
2 | CCN(CC)c1ccc(C=C2C(=O)Nc3ccc(S(=O)(=O)N4CCOCC4)cc32)c(O)c1 [10734/F05] | 9.8 | −1.1
3 | O=C1Nc2ccc(S(=O)(=O)N3CCOCC3)cc2C1=Cc1ccc([N+](=O)[O-])cc1 [10734/F06] | 11.0 | −21.4
4 | O=C1Nc2ccc(S(=O)(=O)N3CCOCC3)cc2C1=Cc1cc(Br)cc(Br)c1O [10734/F07] | 6.6 | −5.1
5 | O=C1Nc2ccc(S(=O)(=O)N3CCOCC3)cc2C1=Cc1cccc(F)c1O [10734/F08] | 4.8 | −6.0
6 | O=C1Nc2ccc(S(=O)(=O)N3CCOCC3)cc2C1=Cc1ccc(O)c(Br)c1 [10734/F09] | −3.7 | −17.4
7 | CC(C)(C)c1ccc(C=C2C(=O)Nc3ccc(S(=O)(=O)N4CCOCC4)cc32)cc1 [10734/F10] | 14.8 | 25.8
8 | O=C1Nc2ccc(S(=O)(=O)N3CCOCC3)cc2C1=Cc1ccc(Br)s1 [10734/F11] | 13.3 | 16.1
9 | CCOc1cccc(C=C2C(=O)Nc3ccc(CCCl)cc32)c1O [10734/G02] | 1.5 | 14.8
10 | O=C1Nc2ccc(CCCl)cc2C1=Cc1cc(Cl)cc(Cl)c1O [10734/G03] | 18.7 | −3.8
11 | O=C1Nc2ccc(CCCl)cc2C1=Cc1cc(Cl)ccc1O [10734/G04] | −1.1 | 16.1
12 | CCN(CC)c1ccc(C=C2C(=O)Nc3ccc(CCCl)cc32)c(O)c1 [10734/G05] | 7.4 | 2.9
13 | O=C1Nc2ccc(CCCl)cc2C1=Cc1ccc([N+](=O)[O-])cc1 [10734/G06] | 16.5 | −18.8
14 | O=C1Nc2ccc(CCCl)cc2C1=Cc1cc(Br)cc(Br)c1O [10734/G07] | 21.9 | −25.0
15 | O=C1Nc2ccc(CCCl)cc2C1=Cc1cccc(F)c1O [10734/G08] | 11.6 | 0.2
16 | O=C1Nc2ccc(CCCl)cc2C1=Cc1ccc(O)c(Br)c1 [10734/G09] | 8.5 | −7.7
17 | CC(C)(C)c1ccc(C=C2C(=O)Nc3ccc(CCCl)cc32)cc1 [10734/G10] | 10.8 | 9.9
18 | O=C1Nc2ccc(CCCl)cc2C1=Cc1ccc(Br)s1 [10734/G11] | 8.7 | −25.4
19 | CCOc1cccc(C=C2C(=O)Nc3c(Br)cc(Br)c(C)c32)c1O [10734/H02] | 0.5 | −10.8
20 | Cc1c(Br)cc(Br)c2c1C(=Cc1cc(Cl)cc(Cl)c1O)C(=O)N2 [10734/H03] | 4.6 | 8.6
21 | Cc1c(Br)cc(Br)c2c1C(=Cc1cc(Cl)ccc1O)C(=O)N2 [10734/H04] | −1.3 | 6.0
